Like-named read-outs stand apart in the source and are kept apart here.
Key:
[1] = Stability of cannabinoid and Vitamin E components of Beverage 2 (AB Red) stored at 8° C. and 21-25° C., LCMSMS over 570 days
[2] = type: physicochemical; settings: stored at room temperature (21-25° C.)
Experimental: At each time period, 0.05 g of powder was dissolved in 10 ml-15 of ethanol, diluted to fall within the analytical range, and injected into the LCMSMS for analysis.

In the case of `CCCCCc1cc(O)c2c(c1)OC(C)(CCC=C(C)C)C=C2` (stereo not shown) [CBC, cannabichromene], the “Stability of Cannabinoids in AB Red” value ([1]; 8° C., 0 days) is reported as 0.290 µg/mL, the “Stability of Cannabinoids in AB Red” value ([1]; 8° C., 1 days) is reported as 0.289 µg/mL and the “Stability of Cannabinoids in AB Red” value ([1]; 8° C., 2 days) is reported as 0.292 µg/mL. The “Stability of Cannabinoids in AB Red” value ([1]; 8° C., 3 days) was 0.285 µg/mL, the “Stability of Cannabinoids in AB Red” value ([1]; 8° C., 5 days) was 0.286 µg/mL and the “Stability of Cannabinoids in AB Red” value ([1]; 8° C., 8 days) was 0.286 µg/mL. The “Stability of Cannabinoids in AB Red” value ([1]; 8° C., 9 days) was 0.288 µg/mL, the “Stability of Cannabinoids in AB Red” value ([1]; 8° C., 10 days) was 0.288 µg/mL and the “Stability of Cannabinoids in AB Red” value ([1]; 8° C., 11 days) was 0.284 µg/mL. For the same molecule, the “Stability of Cannabinoids in AB Red” value ([1]; 8° C., 12 days) was 0.285 µg/mL, the “Stability of Cannabinoids in AB Red” value ([1]; 8° C., 15 days) was 0.292 µg/mL and the “Stability of Cannabinoids in AB Red” value ([1]; 8° C., 16 days) was 0.283 µg/mL. For the same molecule, the “Stability of Cannabinoids in AB Red” value ([1]; 8° C., 17 days) was 0.282 µg/mL, the “Stability of Cannabinoids in AB Red” value ([1]; 8° C., 18 days) was 0.289 µg/mL and the “Stability of Cannabinoids in AB Red” value ([1]; 8° C., 19 days) was 0.287 µg/mL. The “Stability of Cannabinoids in AB Red” value ([1]; 8° C., 22 days) was 0.287 µg/mL, the “Stability of Cannabinoids in AB Red” value ([1]; 8° C., 23 days) was 0.287 µg/mL and the “Stability of Cannabinoids in AB Red” value ([1]; 8° C., 24 days) was 0.291 µg/mL. For the same molecule, the “Stability of Cannabinoids in AB Red” value ([1]; 8° C., 25 days) was 0.287 µg/mL, the “Stability of Cannabinoids in AB Red” value ([1]; 8° C., 26 days) was 0.287 µg/mL and the “Stability of Cannabinoids in AB Red” value ([1]; 8° C., 29 days) was 0.284 µg/mL. For the same molecule, the “Stability of Cannabinoids in AB Red” value ([1]; 8° C., 30 days) was 0.282 µg/mL, the “Stability of Cannabinoids in AB Red” value ([1]; 8° C., 60 days) was 0.278 µg/mL and the “Stability of Cannabinoids in AB Red” value ([1]; 8° C., 90 days) was 0.287 µg/mL. The “Stability of Cannabinoids in AB Red” value ([1]; 8° C., 120 days) was 0.289 µg/mL, the “Stability of Cannabinoids in AB Red” value ([1]; 8° C., 150 days) was 0.281 µg/mL and the “Stability of Cannabinoids in AB Red” value ([1]; 8° C., 180 days) was 0.285 µg/mL. The “Stability of Cannabinoids in AB Red” value ([1]; 8° C., 210 days) was 0.282 µg/mL, the “Stability of Cannabinoids in AB Red” value ([1]; 8° C., 240 days) was 0.280 µg/mL and the “Stability of Cannabinoids in AB Red” value ([1]; 8° C., 270 days) was 0.284 µg/mL. The “Stability of Cannabinoids in AB Red” value ([1]; 8° C., 300 days) was 0.280 µg/mL, the “Stability of Cannabinoids in AB Red” value ([1]; 8° C., 330 days) was 0.278 µg/mL and the “Stability of Cannabinoids in AB Red” value ([1]; 8° C., 390 days) was 0.282 µg/mL. The “Stability of Cannabinoids in AB Red” value ([1]; 8° C., 420 days) was 0.277 µg/mL, the “Stability of Cannabinoids in AB Red” value ([1]; 8° C., 450 days) was 0.282 µg/mL and the “Stability of Cannabinoids in AB Red” value ([1]; 8° C., 480 days) was 0.274 µg/mL. The “Stability of Cannabinoids in AB Red” value ([1]; 8° C., 510 days) was 0.267 µg/mL, the “Stability of Cannabinoids in AB Red” value ([1]; 8° C., 540 days) was 0.271 µg/mL and the “Stability of Cannabinoids in AB Red” value ([1]; 8° C., 570 days) was 0.266 µg/mL. For the same molecule, the “Stability of Cannabinoids in AB Red” value ([1]; 21-25° C., 0 days) was 0.29 µg/mL, the “Stability of Cannabinoids in AB Red” value ([1]; 21-25° C., 1 days) was 0.28 µg/mL and the “Stability of Cannabinoids in AB Red” value ([1]; 21-25° C., 2 days) was 0.28 µg/mL. The “Stability of Cannabinoids in AB Red” value ([1]; 21-25° C., 3 days) was 0.29 µg/mL, the “Stability of Cannabinoids in AB Red” value ([1]; 21-25° C., 5 days) was 0.28 µg/mL and the “Stability of Cannabinoids in AB Red” value ([1]; 21-25° C., 8 days) was 0.28 µg/mL. The “Stability of Cannabinoids in AB Red” value ([1]; 21-25° C., 9 days) was 0.28 µg/mL, the “Stability of Cannabinoids in AB Red” value ([1]; 21-25° C., 10 days) was 0.29 µg/mL and the “Stability of Cannabinoids in AB Red” value ([1]; 21-25° C., 11 days) was 0.29 µg/mL. For the same molecule, the “Stability of Cannabinoids in AB Red” value ([1]; 21-25° C., 12 days) was 0.28 µg/mL, the “Stability of Cannabinoids in AB Red” value ([1]; 21-25° C., 15 days) was 0.28 µg/mL and the “Stability of Cannabinoids in AB Red” value ([1]; 21-25° C., 16 days) was 0.28 µg/mL. The “Stability of Cannabinoids in AB Red” value ([1]; 21-25° C., 17 days) was 0.28 µg/mL, the “Stability of Cannabinoids in AB Red” value ([1]; 21-25° C., 18 days) was 0.29 µg/mL and the “Stability of Cannabinoids in AB Red” value ([1]; 21-25° C., 19 days) was 0.29 µg/mL. For the same molecule, the “Stability of Cannabinoids in AB Red” value ([1]; 21-25° C., 22 days) was 0.29 µg/mL, the “Stability of Cannabinoids in AB Red” value ([1]; 21-25° C., 23 days) was 0.28 µg/mL and the “Stability of Cannabinoids in AB Red” value ([1]; 21-25° C., 24 days) was 0.29 µg/mL. For the same molecule, the “Stability of Cannabinoids in AB Red” value ([1]; 21-25° C., 25 days) was 0.28 µg/mL, the “Stability of Cannabinoids in AB Red” value ([1]; 21-25° C., 26 days) was 0.28 µg/mL and the “Stability of Cannabinoids in AB Red” value ([1]; 21-25° C., 29 days) was 0.29 µg/mL. For the same molecule, the “Stability of Cannabinoids in AB Red” value ([1]; 21-25° C., 30 days) was 0.29 µg/mL, the “Stability of Cannabinoids in AB Red” value ([1]; 21-25° C., 60 days) was 0.29 µg/mL and the “Stability of Cannabinoids in AB Red” value ([1]; 21-25° C., 90 days) was 0.28 µg/mL. The “Stability of Cannabinoids in AB Red” value ([1]; 21-25° C., 120 days) was 0.29 µg/mL, the “Stability of Cannabinoids in AB Red” value ([1]; 21-25° C., 150 days) was 0.29 µg/mL and the “Stability of Cannabinoids in AB Red” value ([1]; 21-25° C., 180 days) was 0.28 µg/mL. The “Stability of Cannabinoids in AB Red” value ([1]; 21-25° C., 210 days) was 0.29 µg/mL, the “Stability of Cannabinoids in AB Red” value ([1]; 21-25° C., 240 days) was 0.28 µg/mL and the “Stability of Cannabinoids in AB Red” value ([1]; 21-25° C., 270 days) was 0.29 µg/mL. For the same molecule, the “Stability of Cannabinoids in AB Red” value ([1]; 21-25° C., 300 days) was 0.29 µg/mL, the “Stability of Cannabinoids in AB Red” value ([1]; 21-25° C., 330 days) was 0.29 µg/mL and the “Stability of Cannabinoids in AB Red” value ([1]; 21-25° C., 390 days) was 0.28 µg/mL. The “Stability of Cannabinoids in AB Red” value ([1]; 21-25° C., 420 days) was 0.28 µg/mL, the “Stability of Cannabinoids in AB Red” value ([1]; 21-25° C., 450 days) was 0.28 µg/mL and the “Stability of Cannabinoids in AB Red” value ([1]; 21-25° C., 480 days) was 0.28 µg/mL. The “Stability of Cannabinoids in AB Red” value ([1]; 21-25° C., 510 days) was 0.27 µg/mL, the “Stability of Cannabinoids in AB Red” value ([1]; 21-25° C., 540 days) was 0.28 µg/mL and the “Stability of Cannabinoids in AB Red” value ([1]; 21-25° C., 570 days) was 0.27 µg/mL. The “Stability in Powder Concentrate (content by LCMSMS)” value (“Stability in Powder Concentrate” for short) ([2]; day 0) was 0.070 mg/g powder, the “Stability in Powder Concentrate” value ([2]; day 1) was 0.072 mg/g powder and the “Stability in Powder Concentrate” value ([2]; day 2) was 0.071 mg/g powder. For the same molecule, the “Stability in Powder Concentrate” value ([2]; day 3) was 0.073 mg/g powder, the “Stability in Powder Concentrate” value ([2]; day 5) was 0.070 mg/g powder and the “Stability in Powder Concentrate” value ([2]; day 8) was 0.071 mg/g powder. The “Stability in Powder Concentrate” value ([2]; day 9) was 0.068 mg/g powder, the “Stability in Powder Concentrate” value ([2]; day 10) was 0.071 mg/g powder and the “Stability in Powder Concentrate” value ([2]; day 11) was 0.071 mg/g powder. For the same molecule, the “Stability in Powder Concentrate” value ([2]; day 12) was 0.069 mg/g powder, the “Stability in Powder Concentrate” value ([2]; day 15) was 0.073 mg/g powder and the “Stability in Powder Concentrate” value ([2]; day 16) was 0.073 mg/g powder. The “Stability in Powder Concentrate” value ([2]; day 17) was 0.070 mg/g powder, the “Stability in Powder Concentrate” value ([2]; day 18) was 0.072 mg/g powder and the “Stability in Powder Concentrate” value ([2]; day 19) was 0.070 mg/g powder. For the same molecule, the “Stability in Powder Concentrate” value ([2]; day 22) was 0.071 mg/g powder, the “Stability in Powder Concentrate” value ([2]; day 23) was 0.069 mg/g powder and the “Stability in Powder Concentrate” value ([2]; day 24) was 0.068 mg/g powder. The “Stability in Powder Concentrate” value ([2]; day 25) was 0.072 mg/g powder, the “Stability in Powder Concentrate” value ([2]; day 26) was 0.071 mg/g powder and the “Stability in Powder Concentrate” value ([2]; day 29) was 0.069 mg/g powder. The “Stability in Powder Concentrate” value ([2]; day 30) was 0.072 mg/g powder, the “Stability in Powder Concentrate” value ([2]; day 60) was 0.068 mg/g powder and the “Stability in Powder Concentrate” value ([2]; day 90) was 0.068 mg/g powder. For the same molecule, the “Stability in Powder Concentrate” value ([2]; day 120) was 0.072 mg/g powder, the “Stability in Powder Concentrate” value ([2]; day 150) was 0.072 mg/g powder and the “Stability in Powder Concentrate” value ([2]; day 180) was 0.071 mg/g powder. The “Stability in Powder Concentrate” value ([2]; day 210) was 0.072 mg/g powder, the “Stability in Powder Concentrate” value ([2]; day 240) was 0.068 mg/g powder and the “Stability in Powder Concentrate” value ([2]; day 270) was 0.072 mg/g powder. The “Stability in Powder Concentrate” value ([2]; day 300) was 0.071 mg/g powder, the “Stability in Powder Concentrate” value ([2]; day 330) was 0.069 mg/g powder and the “Stability in Powder Concentrate” value ([2]; day 360) was 0.068 mg/g powder. For the same molecule, the “Stability in Powder Concentrate” value ([2]; day 390) was 0.068 mg/g powder, the “Stability in Powder Concentrate” value ([2]; day 420) was 0.069 mg/g powder and the “Stability in Powder Concentrate” value ([2]; day 450) was 0.073 mg/g powder. The “Stability in Powder Concentrate” value ([2]; day 480) was 0.071 mg/g powder, the “Stability in Powder Concentrate” value ([2]; day 510) was 0.069 mg/g powder and the “Stability in Powder Concentrate” value ([2]; day 540) was 0.070 mg/g powder. For the same molecule, the “Stability in Powder Concentrate” value ([2]; day 570) was 0.069 mg/g powder.

Reference: patent US20240415914A1, “Water Dispersible Cannabinoid Compositions” (priority 2021, published 2024)
